From patent US8546320B2, “Hsp9O-targeted anti-cancer chimeric peptide” (Kyoto University, priority 2008, dated 2013)
Where two headings read alike, the source gives them in different places. Where a SMILES comes first, the peptide text is derived from it.

Columns and labels:
[1] = tested on: Human pancreatic cancer cells (Bxpc 3); test: Anti-tumor effect in cancer-bearing animal models, local administration; type: in vivo; settings: site of administration and behavior observed
Procedure: Human pancreatic cancer cells (Bxpc 3) (5.0×10^6) were suspended in 150 μl of phosphate-buffered physiological saline (PBS) and transplanted subcutaneously into nude mice (BALB/c Slc-nu/nu). After 5 days, 150 μl of the Antp-TPR peptide suspended in PBS at a concentration of 1 mg/kg to 5 mg/kg was administered to the solid cancer every two days for a total of nine times, and the tumor contraction effect was examined. The tumor diameter was measured with calipers and the tumor volume (mm^3) was calculated according to the formula: length (mm)×minor diameter (mm)^2×0.5.

U937 = test: cells; type: cell-based, human
Procedure: (§1) A total of 3×10^3 cells per well were inoculated onto a 96 well plate, and incubated in a medium containing 10% FBS with 100 μl of a peptide diluted stepwise at 37° C. for 48 to 72 hours. The survival rate of the cells was measured by using WST-8 solution (Cell Count Reagent SF; Nacalai Tesque, Inc.).

THP-1 = test: cells; type: cell-based, human
Procedure: as §1

HL-60 = test: cells; type: cell-based, human
Procedure: as §1

K562 = test: cells; type: cell-based, human
Procedure: as §1

OE19 = type: cell-based; settings: 24 h
Procedure: (§2) A total of 3×10^3 cells were inoculated per well on a 96 well plate and cultured in a medium containing 10% FBS for 24 hours, and incubated with 100 μl of a peptide having a gradual increase in concentration at 37° C. for 48 to 72 hours. The survival rate of the cells was measured by using WST-8 solution (Cell Count Reagent SF; Nacalai Tesque, Inc.).
as §1

cancer cells = test: Cell viability assay, summary statements on cancer cells; type: cell-based
LNCap = type: cell-based, human; settings: 24 h
BT-20 = type: cell-based, human; settings: 24 h
Procedure: as §2, §1

Caki-1 [2] = type: cell-based, human
MDA-MB-231 = type: cell-based; settings: 24 h
A549 = type: cell-based; settings: 24 h
BXPC-3 = type: cell-based, human
leukemia cell strains = type: cell-based, human
Procedure: as §1

[3] = tested on: human normal pancreas epithelial cell strain (PE); test: Cell viability assay (WST-8), PE; type: cell-based; settings: Normal cells PE, averages of two independent experiments, read-out: Anti-tumor activity, IC50
Procedure: as §1

HEK293 = test: cells; type: cell-based, human; settings: Homo sapiens, HEK293; Normal cells HEK; averages of two independent experiments; read-out: Anti-tumor activity, IC50
Procedure: as §2, §1

[4] = tested on: human lung normal epithelial cell strain (WI38); test: Cell viability assay (WST-8), WI38; type: cell-based; settings: Normal cells W138, averages of two independent experiments, read-out: Anti-tumor activity, IC50
Procedure: as §1

[5] = target: T1, interaction between Hsp90 and the Hop's TPR2A domain (Homo sapiens, UniProt P07900); test: BIACORE competition: Hsp90 pre-mixed with peptide, added to immobilized TPR2A; type: binding; settings: increasing peptide concentration
T1 construct: histidine tag; made in house; host or cells: Hsp90: E. coli BL21 (pDEST17-Hsp90)
Text: It was examined whether the TPR peptide designed could compete specifically with the interaction between Hsp90, which is essential for the accurate folding of some carcinogenic protein including survivin in cancer cells, and the Hop's TPR2A domain.

Caki-1 [6] = type: cell-based, human; settings: Caki-1, 68 μM
Procedure: The TPR peptide or the TPR scramble peptide was mixed with a commercially available transfection reagent (Profect-P2 or, Lipofectamine LTX) and the mixture was left to incubate at room temperature for 20 minutes, to form liposome before the complex was added to cancer cells (Caki-1 (kidney cancer cells)); the survival rate of the cells was then measured by using WST-8 solution (Cell Count Reagent SF; Nacalai Tesque, Inc.) and the results were compared with those such as in the case of the TPR scramble peptide or the liposome alone.

T47D = type: cell-based, human; settings: T47D
Procedure: as §2

[7] = U-937, Human AML cells U937, averages of two independent experiments, read-out: Anti-tumor activity, IC50
[8] = Human AML cells THP-1, averages of two independent experiments, read-out: Anti-tumor activity, IC50
[9] = Human AML cells HL-60, averages of two independent experiments, read-out: Anti-tumor activity, IC50
[10] = Human AML cells K562, averages of two independent experiments, read-out: Anti-tumor activity, IC50
[11] = Caki-1, wild-type peptide = 100%

CC[C@H](C)[C@H](NC(=O)[C@H](CCCNC(=N)N)NC(=O)[C@H](C)NC(=O)[C@H](Cc1ccc(O)cc1)NC(=O)[C@H](C)NC(=O)[C@H](CCCCN)NC(=O)[C@H](CCCCN)NC(=O)[C@H](CCCCN)NC(=O)[C@H](Cc1c[nH]c2ccccc12)NC(=O)[C@H](CCCCN)NC(=O)[C@H](CCSC)NC(=O)[C@H](CCCNC(=N)N)NC(=O)[C@H](CCCNC(=N)N)NC(=O)[C@H](CC(N)=O)NC(=O)[C@H](CCC(N)=O)NC(=O)[C@H](Cc1ccccc1)NC(=O)[C@H](Cc1c[nH]c2ccccc12)NC(=O)[C@@H](NC(=O)[C@H](CCCCN)NC(=O)[C@@H](NC(=O)[C@H](CCC(N)=O)NC(=O)[C@@H](N)CCCNC(=N)N)[C@@H](C)CC)[C@@H](C)CC)C(=O)NCC(=O)N[C@@H](CC(N)=O)C(=O)N[C@@H](CO)C(=O)N[C@@H](Cc1ccc(O)cc1)C(=O)N[C@@H](Cc1ccccc1)C(=O)N[C@@H](CCCCN)C(=O)O [Antp-TPR] (H-RQIKIWFQNRRMKWKKKAYARIGNSYFK-OH; N-terminus and C-terminus assumed)
toxicity to the mice [1]: little toxicity to the mice
Cell Survival Rate (%) (U937): 23.24%
IC50 (U937): 25.2 µM
IC50 (THP-1): 24.7 µM
IC50 (HL-60): 46.4 µM
IC50 (K562): 54.2 µM
IC50 (OE19): 29.9 ± 3.4 µM
IC50 (cancer cells; 24 h): 20 to 60 µM
IC50 (LNCap): 49.1 ± 3 µM
IC50 (BT-20): 32.8 ± 5.5 µM
IC50 (Caki-1 [2]; 24 h): 43.3 ± 3 µM
IC50 (MDA-MB-231): 56.9 ± 12.3 µM
IC50 (A549): 52.9 ± 2.5 µM
IC50 (BXPC-3; 24 h): 39.8 ± 2.2 µM
IC50 (leukemia cell strains): 20 to 60 µM

COC1=C2C[C@@H](C)C[C@H](OC)[C@H](O)[C@@H](C)/C=C(\C)[C@H](OC(N)=O)[C@@H](OC)/C=C\C=C(/C)C(=O)NC(=CC1=O)C2=O [Geldanamycin, geldanamycin]
Cell Survival Rate (%) (U937; U937, 1.25 μM): 5.40%
Cell Survival Rate (%) (U937; U937, 2.5 μM): 6.26%
Cell Survival Rate (%) (U937; U937, 5 μM): 4.65%
Cell Survival Rate (%) (U937; U937, 10 μM): 5.78%
IC50 (U937; [7]): 0.65 µM
IC50 (THP-1; [8]): 0.7 µM
Cell Survival Rate (%) (THP-1; THP-1, 1.25 μM): 6.20%
Cell Survival Rate (%) (THP-1; THP-1, 2.5 μM): 5.01%
Cell Survival Rate (%) (THP-1; THP-1, 5 μM): 4.49%
Cell Survival Rate (%) (THP-1; THP-1, 10 μM): 7.12%
Cell Survival Rate (%) (HL-60; HL-60, 1.25 μM): 6.65%
Cell Survival Rate (%) (HL-60; HL-60, 2.5 μM): 6.02%
Cell Survival Rate (%) (HL-60; HL-60, 5 μM): 5.03%
Cell Survival Rate (%) (HL-60; HL-60, 10 μM): 5.23%
IC50 (HL-60; [9]): 0.7 µM
IC50 (K562; [10]): 0.75 µM
Cell Survival Rate (%) (K562; K562, 1.25 μM): 20.08%
Cell Survival Rate (%) (K562; K562, 2.5 μM): 9.75%
Cell Survival Rate (%) (K562; K562, 5 μM): 7.07%
Cell Survival Rate (%) (K562; K562, 10 μM): 6.60%
IC50 [3]: 0.7 µM
IC50 (HEK293): 0.7 µM
IC50 [4]: 1 µM

TPR mutant 1: TPR mutant 1 peptide without Antp, SEQ ID No. 70; sequence not printed in the text (KAYAAAGNSYTFK; TPR mutant 1)
inhibition of the interaction between Hsp90 and TPR2A [5]: does not inhibit the interaction completely

C=CCNC1=C2C[C@@H](C)C[C@H](OC)[C@H](O)[C@@H](C)/C=C(\C)[C@H](OC(N)=O)[C@@H](OC)/C=C\C=C(/C)C(=O)NC(=CC1=O)C2=O [Peptide 17-AAG, 17-allylaminogeldanamycin]
Cell Survival Rate (%) (U937; U937, 1.25 μM): 5.21%
Cell Survival Rate (%) (U937; U937, 2.5 μM): 4.03%
Cell Survival Rate (%) (U937; U937, 5 μM): 4.97%
Cell Survival Rate (%) (U937; U937, 10 μM): 4.16%
IC50 (U937; [7]): 0.7 µM
IC50 (THP-1; [8]): 0.75 µM
Cell Survival Rate (%) (THP-1; THP-1, 1.25 μM): 6.80%
Cell Survival Rate (%) (THP-1; THP-1, 2.5 μM): 5.49%
Cell Survival Rate (%) (THP-1; THP-1, 5 μM): 6.56%
Cell Survival Rate (%) (THP-1; THP-1, 10 μM): 7.76%
Cell Survival Rate (%) (HL-60; HL-60, 1.25 μM): 37.03%
Cell Survival Rate (%) (HL-60; HL-60, 2.5 μM): 19.70%
Cell Survival Rate (%) (HL-60; HL-60, 5 μM): 8.37%
Cell Survival Rate (%) (HL-60; HL-60, 10 μM): 3.87%
IC50 (HL-60; [9]): 1.05 µM
IC50 (K562; [10]): 0.7 µM
Cell Survival Rate (%) (K562; K562, 1.25 μM): 5.67%
Cell Survival Rate (%) (K562; K562, 2.5 μM): 5.08%
Cell Survival Rate (%) (K562; K562, 5 μM): 5.67%
Cell Survival Rate (%) (K562; K562, 10 μM): 6.35%
IC50 [3]: 0.8 µM
IC50 (HEK293): 0.7 µM
IC50 [4]: 0.7 µM

CC[C@H](C)[C@H](NC(=O)[C@H](C)NC(=O)[C@H](C)NC(=O)[C@H](CO)NC(=O)[C@H](Cc1ccccc1)NC(=O)[C@H](CCCCN)NC(=O)[C@@H](N)CCCNC(=N)N)C(=O)NCC(=O)N[C@@H](Cc1ccc(O)cc1)C(=O)N[C@@H](CC(N)=O)C(=O)N[C@@H](CCCCN)C(=O)N[C@@H](Cc1ccc(O)cc1)C(=O)O [TPR scramble, reference compound] (H-RKFSAAIGYNKY-OH; N-terminus and C-terminus assumed)
killing effect after introduction with transfection reagent (Caki-1 [6]): not observed
inhibition of the interaction between Hsp90 and TPR2A [5]: does not inhibit the interaction completely

CC[C@H](C)[C@H](NC(=O)[C@H](CCCNC(=N)N)NC(=O)[C@H](C)NC(=O)[C@H](Cc1ccc(O)cc1)NC(=O)[C@H](C)NC(=O)[C@H](CCCCN)NC(=O)[C@H](CCCNC(=N)N)NC(=O)[C@H](CCCNC(=N)N)NC(=O)[C@H](CCCNC(=N)N)NC(=O)[C@H](CCC(N)=O)NC(=O)[C@H](CCCNC(=N)N)NC(=O)[C@H](CCCNC(=N)N)NC(=O)[C@H](CCCCN)NC(=O)[C@H](CCCCN)NC(=O)[C@H](CCCNC(=N)N)NC(=O)CNC(=O)[C@@H](N)Cc1ccc(O)cc1)C(=O)NCC(=O)N[C@@H](CC(N)=O)C(=O)N[C@@H](CO)C(=O)N[C@@H](Cc1ccc(O)cc1)C(=O)N[C@@H](Cc1ccccc1)C(=O)N[C@@H](CCCCN)C(=O)O (H-YGRKKRRQRRRKAYARIGNSYFK-OH)
Cell Survival Rate (%) (T47D; 21 μM): 77.68%
Cell Survival Rate (%) (T47D; 42 μM): 58.60%
Cell Survival Rate (%) (T47D; 84 μM): 74.23%
Cell Survival Rate (%) (T47D; 168 μM): 17.92%
Cell Survival Rate (%) (BXPC-3; Bxpc3, 21 μM): 82.25%
Cell Survival Rate (%) (BXPC-3; Bxpc3, 42 μM): 73.08%
Cell Survival Rate (%) (BXPC-3; Bxpc3, 84 μM): 60.49%
Cell Survival Rate (%) (BXPC-3; Bxpc3, 168 μM): 47.24%

CC[C@H](C)[C@H](NC(=O)[C@H](CCCCN)NC(=O)[C@@H](NC(=O)[C@H](CCC(N)=O)NC(=O)[C@@H](N)CCCNC(=N)N)[C@@H](C)CC)C(=O)N[C@@H](Cc1c[nH]c2ccccc12)C(=O)N[C@@H](Cc1ccccc1)C(=O)N[C@@H](CCC(N)=O)C(=O)N[C@@H](CC(N)=O)C(=O)N[C@@H](CCCNC(=N)N)C(=O)N[C@@H](CCCNC(=N)N)C(=O)N[C@@H](CCSC)C(=O)N[C@@H](CCCCN)C(=O)N[C@@H](Cc1c[nH]c2ccccc12)C(=O)N[C@@H](CCCCN)C(=O)N[C@@H](CCCCN)C(=O)N[C@@H](CCCCN)C(=O)N[C@@H](C)C(=O)N[C@@H](Cc1ccc(O)cc1)C(=O)N[C@@H](C)C(=O)N[C@@H](CCCNC(=N)N)C(=O)N[C@@H](CCCNC(=N)N)C(=O)NCC(=O)N[C@@H](CC(N)=O)C(=O)N[C@@H](CO)C(=O)N[C@@H](Cc1ccc(O)cc1)C(=O)N[C@@H](Cc1ccccc1)C(=O)N[C@@H](CCCCN)C(=O)O [Antp-I6R] (H-RQIKIWFQNRRMKWKKKAYARRGNSYFK-OH; N-terminus and C-terminus assumed)
Cell Survival Rate (%) (U937): 91.60%
Anti-cancer activity (% relative to wild-type peptide) (U937; U937, wild-type peptide = 100%): 10.92%
Decrease in cell survival rate (% relative to wild-type peptide) (U937; U937, wild-type peptide = 100%): 25.36%
effect compared with the wild-type protein (summary of mutations) (cancer cells; single mutation in TPR or Antp region of Antp-TPR): effective but with a lower effect than the wild-type protein
Anti-cancer activity (% relative to wild-type peptide) (Caki-1 [2]; [11]): 1.95%
Decrease in cell survival rate (% relative to wild-type peptide) (Caki-1 [2]; [11]): 10.87%
